Values after ≈ are worked out from the molar mass of the structure shown.
How the values were obtained:
Type in all cases: cell-based
[1] = system: methicillin-sensitive Staphylococcus epidermidis (MSSE); assay: MIC, two-fold agar dilution (CLSI), clinical isolates
Summary of the method: (§1)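 Susceptibility was tested using CLSI two-fold agar dilution against the strains examined.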

[2] = system: Streptococcus pneoumoniae (SPN); assay: as above
Summary of the method: as §1

[3] = system: Moraxella catarrhalis (BCA); assay: as above; conditions: for Anti-bacterial activity (MIC), strain BCA 14-10: clinical isolate BCA 14-10
Summary of the method: as §1

[4] = system: Enterococcus faecalis (EFA); assay: as above
Summary of the method: as §1

[5] = system: methicillin-resistant Staphylococcus aureus (MRSA); assay: as above
Summary of the method: as §1

[6] = system: Enterococcus faecium (EFM); assay: as above
Summary of the method: as §1

[7] = system: methicillin-sensitive Staphylococcus aureus (MSSA); assay: as above
Summary of the method: as §1

[8] = system: Escherichia coli (including ESBLs, non-ESBLs); assay: as above
Summary of the method: as §1

[9] = system: methicillin-resistant Staphylococcus epidermidis (MRSE); assay: as above
Summary of the method: as §1

[10] = system: HCT-116 colorectal cancer cell line; assay: CCK-8 proliferation inhibition; conditions: Homo sapiens, HCT-116, 72 h, concentration of 30 μM; 72 hours; CCK-8; read-out: HCT116 inhibition rate/%
Summary of the method: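 Viability read-out: 1:10 diluted CCK-8 after 72 h compound exposure at 37 °C, 5% CO2. Cells (2000/well, McCoy's 5A plus 10% newborn bovine serum) pre-cultured overnight; vehicle control 1‰ DMSO.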

SMILES: O=CN(O)C[C@@H](CC1CCCC1)C(=O)N1CC2(CC2)C[C@H]1C(=O)Nc1ccno1 [Example 37, (S)-5-((R)-3-cyclopentyl-2-((N-hydroxyformamido)methyl)propionyl)-N-(isoxazol-5-yl)-5-azaspiro[2.4]heptane-6-carboxamide]
- MIC (anti-bacterial activity) ([1]; strain MSSE 15-3): 1 µg/mL (≈ 2.47 µM)
- MIC (anti-bacterial activity) ([1]; strain MSSE 15-4): 1 µg/mL (≈ 2.47 µM)
- MIC (anti-bacterial activity) ([1]; strain MSSE 15-5): 1 µg/mL (≈ 2.47 µM)
- MIC (anti-bacterial activity) ([1]; strain MSSE 15-6): 1 µg/mL (≈ 2.47 µM)
- MIC (anti-bacterial activity) ([2]; strain SPN 16-2): 0.5 µg/mL (≈ 1.24 µM)
- MIC (anti-bacterial activity) ([2]; strain SPN 16-4): 4 µg/mL (≈ 9.89 µM)
- Anti-bacterial activity (MIC), strain BCA 14-10 [3]: 3 µg/mL
- MIC (anti-bacterial activity) ([3]; strain BCA 14-1): 2 µg/mL (≈ 4.94 µM)
- MIC (anti-bacterial activity) ([3]; strain BCA 14-4): 2 µg/mL (≈ 4.94 µM)
- MIC (anti-bacterial activity) ([3]; strain BCA 14-5): 2 µg/mL (≈ 4.94 µM)
- MIC (anti-bacterial activity) ([3]; strain BCA 14-6): 2 µg/mL (≈ 4.94 µM)
- MIC (anti-bacterial activity) ([3]; strain BCA 14-7): 3 µg/mL (≈ 7.42 µM)
- MIC (anti-bacterial activity) ([3]; strain BCA 14-8): 2 µg/mL (≈ 4.94 µM)
- MIC (anti-bacterial activity) ([4]; strain EFA 15-1): 4 µg/mL (≈ 9.89 µM)
- MIC (anti-bacterial activity) ([4]; strain EFA 15-2): 4 µg/mL (≈ 9.89 µM)
- MIC (anti-bacterial activity) ([4]; strain EFA 15-3): 4 µg/mL (≈ 9.89 µM)
- MIC (anti-bacterial activity) ([4]; strain EFA 15-4): 4 µg/mL (≈ 9.89 µM)
- MIC (anti-bacterial activity) ([4]; strain EFA 15-5): 4 µg/mL (≈ 9.89 µM)
- MIC (anti-bacterial activity) ([4]; strain EFA 15-6): 4 µg/mL (≈ 9.89 µM)
- MIC (anti-bacterial activity) ([4]; strain EFA 15-9): 4 µg/mL (≈ 9.89 µM)
- MIC (anti-bacterial activity) ([5]; strain MRSA 15-1): 0.5 µg/mL (≈ 1.24 µM)
- MIC (anti-bacterial activity) ([5]; strain MRSA 15-2): 1 µg/mL (≈ 2.47 µM)
- MIC (anti-bacterial activity) ([5]; strain MRSA 15-3): 0.5 µg/mL (≈ 1.24 µM)
- MIC (anti-bacterial activity) ([5]; strain MRSA 15-4): 0.2 µg/mL (≈ 0.494 µM)
- MIC (anti-bacterial activity) ([6]; strain EFM 15-1): 2 µg/mL (≈ 4.94 µM)
- MIC (anti-bacterial activity) ([6]; strain EFM 15-2): 2 µg/mL (≈ 4.94 µM)
- MIC (anti-bacterial activity) ([6]; strain EFM 15-3): 2 µg/mL (≈ 4.94 µM)
- MIC (anti-bacterial activity) ([6]; strain EFM 15-4): 2 µg/mL (≈ 4.94 µM)
- MIC (anti-bacterial activity) ([6]; strain EFM 15-5): 1 µg/mL (≈ 2.47 µM)
- MIC (anti-bacterial activity) ([6]; strain EFM 15-6): 2 µg/mL (≈ 4.94 µM)
- MIC (anti-bacterial activity) ([7]; strain MSSA 15-3): 1 µg/mL (≈ 2.47 µM)
- MIC (anti-bacterial activity) ([7]; strain MSSA 15-4): 1 µg/mL (≈ 2.47 µM)
- MIC (anti-bacterial activity) ([7]; strain MSSA 15-5): 0.5 µg/mL (≈ 1.24 µM)
- MIC (anti-bacterial activity) ([7]; strain MSSA 15-6): 1 µg/mL (≈ 2.47 µM)
- MIC (anti-bacterial activity) ([8]; strain ECO+ 15-1): 32 µg/mL (≈ 79.1 µM)
- MIC (anti-bacterial activity) ([8]; strain ECO+ 15-2): 32 µg/mL (≈ 79.1 µM)
- MIC (anti-bacterial activity) ([8]; strain ECO+ 15-3): 32 µg/mL (≈ 79.1 µM)
- MIC (anti-bacterial activity) ([8]; strain ECO+ 15-4): 32 µg/mL (≈ 79.1 µM)
- MIC (anti-bacterial activity) ([8]; strain ECO− 15-1): 32 µg/mL (≈ 79.1 µM)
- MIC (anti-bacterial activity) ([8]; strain ECO− 15-2): 32 µg/mL (≈ 79.1 µM)
- MIC (anti-bacterial activity) ([8]; strain ECO− 15-3): 32 µg/mL (≈ 79.1 µM)
- MIC (anti-bacterial activity) ([8]; strain ECO− 15-4): 32 µg/mL (≈ 79.1 µM)
- MIC (anti-bacterial activity) ([9]; strain MRSE 15-1): 0.5 µg/mL (≈ 1.24 µM)
- MIC (anti-bacterial activity) ([9]; strain MRSE 15-2): 1 µg/mL (≈ 2.47 µM)
- MIC (anti-bacterial activity) ([9]; strain MRSE 15-3): 1 µg/mL (≈ 2.47 µM)
- MIC (anti-bacterial activity) ([9]; strain MRSE 15-7): 1 µg/mL (≈ 2.47 µM)
- inhibition at 30 µM [10]: 16%

SMILES: Cc1cc(NC(=O)[C@@H]2CC3(CC3)CN2C(=O)[C@H](CC2CCCC2)CN(O)C=O)no1 [Example 39]
- MIC (anti-bacterial activity) ([1]; strain MSSE 15-3): 1 µg/mL (≈ 2.39 µM)
- MIC (anti-bacterial activity) ([1]; strain MSSE 15-4): 1 µg/mL (≈ 2.39 µM)
- MIC (anti-bacterial activity) ([1]; strain MSSE 15-5): 1 µg/mL (≈ 2.39 µM)
- MIC (anti-bacterial activity) ([1]; strain MSSE 15-6): 1 µg/mL (≈ 2.39 µM)
- MIC (anti-bacterial activity) ([2]; strain SPN 16-2): 0.5 µg/mL (≈ 1.19 µM)
- MIC (anti-bacterial activity) ([2]; strain SPN 16-4): 4 µg/mL (≈ 9.56 µM)
- Anti-bacterial activity (MIC), strain BCA 14-10 [3]: 0.5 µg/mL
- MIC (anti-bacterial activity) ([3]; strain BCA 14-1): 1 µg/mL (≈ 2.39 µM)
- MIC (anti-bacterial activity) ([3]; strain BCA 14-4): 1 µg/mL (≈ 2.39 µM)
- MIC (anti-bacterial activity) ([3]; strain BCA 14-5): 0.5 µg/mL (≈ 1.19 µM)
- MIC (anti-bacterial activity) ([3]; strain BCA 14-6): 1 µg/mL (≈ 2.39 µM)
- MIC (anti-bacterial activity) ([3]; strain BCA 14-7): 1 µg/mL (≈ 2.39 µM)
- MIC (anti-bacterial activity) ([3]; strain BCA 14-8): 1 µg/mL (≈ 2.39 µM)
- MIC (anti-bacterial activity) ([4]; strain EFA 15-1): 4 µg/mL (≈ 9.56 µM)
- MIC (anti-bacterial activity) ([4]; strain EFA 15-2): 4 µg/mL (≈ 9.56 µM)
- MIC (anti-bacterial activity) ([4]; strain EFA 15-3): 1 µg/mL (≈ 2.39 µM)
- MIC (anti-bacterial activity) ([4]; strain EFA 15-4): 4 µg/mL (≈ 9.56 µM)
- MIC (anti-bacterial activity) ([4]; strain EFA 15-5): 4 µg/mL (≈ 9.56 µM)
- MIC (anti-bacterial activity) ([4]; strain EFA 15-6): 4 µg/mL (≈ 9.56 µM)
- MIC (anti-bacterial activity) ([4]; strain EFA 15-9): 4 µg/mL (≈ 9.56 µM)
- MIC (anti-bacterial activity) ([5]; strain MRSA 15-1): 1 µg/mL (≈ 2.39 µM)
- MIC (anti-bacterial activity) ([5]; strain MRSA 15-2): 1 µg/mL (≈ 2.39 µM)
- MIC (anti-bacterial activity) ([5]; strain MRSA 15-3): 1 µg/mL (≈ 2.39 µM)
- MIC (anti-bacterial activity) ([5]; strain MRSA 15-4): 1 µg/mL (≈ 2.39 µM)
- MIC (anti-bacterial activity) ([6]; strain EFM 15-1): 1 µg/mL (≈ 2.39 µM)
- MIC (anti-bacterial activity) ([6]; strain EFM 15-2): 1 µg/mL (≈ 2.39 µM)
- MIC (anti-bacterial activity) ([6]; strain EFM 15-3): 0.5 µg/mL (≈ 1.19 µM)
- MIC (anti-bacterial activity) ([6]; strain EFM 15-4): 1 µg/mL (≈ 2.39 µM)
- MIC (anti-bacterial activity) ([6]; strain EFM 15-5): 1 µg/mL (≈ 2.39 µM)
- MIC (anti-bacterial activity) ([6]; strain EFM 15-6): 1 µg/mL (≈ 2.39 µM)
- MIC (anti-bacterial activity) ([7]; strain MSSA 15-3): 1 µg/mL (≈ 2.39 µM)
- MIC (anti-bacterial activity) ([7]; strain MSSA 15-4): 1 µg/mL (≈ 2.39 µM)
- MIC (anti-bacterial activity) ([7]; strain MSSA 15-5): 1 µg/mL (≈ 2.39 µM)
- MIC (anti-bacterial activity) ([7]; strain MSSA 15-6): 1 µg/mL (≈ 2.39 µM)
- MIC (anti-bacterial activity) ([8]; strain ECO+ 15-1): 16 µg/mL (≈ 38.2 µM)
- MIC (anti-bacterial activity) ([8]; strain ECO+ 15-2): 32 µg/mL (≈ 76.5 µM)
- MIC (anti-bacterial activity) ([8]; strain ECO+ 15-3): 32 µg/mL (≈ 76.5 µM)
- MIC (anti-bacterial activity) ([8]; strain ECO+ 15-4): 16 µg/mL (≈ 38.2 µM)
- MIC (anti-bacterial activity) ([8]; strain ECO− 15-1): 32 µg/mL (≈ 76.5 µM)
- MIC (anti-bacterial activity) ([8]; strain ECO− 15-2): 32 µg/mL (≈ 76.5 µM)
- MIC (anti-bacterial activity) ([8]; strain ECO− 15-3): 32 µg/mL (≈ 76.5 µM)
- MIC (anti-bacterial activity) ([8]; strain ECO− 15-4): 32 µg/mL (≈ 76.5 µM)
- MIC (anti-bacterial activity) ([9]; strain MRSE 15-1): 1 µg/mL (≈ 2.39 µM)
- MIC (anti-bacterial activity) ([9]; strain MRSE 15-2): 1 µg/mL (≈ 2.39 µM)
- MIC (anti-bacterial activity) ([9]; strain MRSE 15-3): 1 µg/mL (≈ 2.39 µM)
- MIC (anti-bacterial activity) ([9]; strain MRSE 15-7): 1 µg/mL (≈ 2.39 µM)
- inhibition at 30 µM [10]: -10%

Source: US10738028B2, “Spiro three-membered ring, spiro five-membered ring peptide deformylase inhibitor and use thereof in antibacteria and anti-tumor” (priority 2016, dated 2020)
